Here are results for nine compounds from the supplement of paper PMC10883282.

± gives the standard deviation of the averaged measurements.

This assay deals with RD-ES. Nature of the assay: relative viability vs DMSO control (72 h) (fraction); higher = more viable cells. An outline of the steps:
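Percent growth from ATPLite readings, averaged over up to triplicate wells, was used as relative viability. Sarcoma cell lines were seeded into 384-well plates for 80–90% confluence, dosed after 24 h, and kept 72 h at 37 °C, 5% CO2. Data were rescaled to a range where 1 is full and 0 is none.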

As for `CC(C)NC(=O)C1CCC(n2c(NC(=O)c3ccc(F)cc3)nc3ccc(CN4CCC(C(C)(C)O)CC4)cc32)CC1` (centres undefined) [Belizatinib], the relative viability reads like this: (0.00017 µM) 1.01 ± 0.025; (0.00051 µM) 1.02 ± 0.021; (0.00152 µM) 0.997 ± 0.021; (0.00457 µM) 1.02 ± 0.013; (0.01372 µM) 1.03 ± 0.021; (0.04115 µM) 0.995 ± 0.021. The relative viability by setting is: (0.1235 µM) 0.907 ± 0.01; (0.3704 µM) 0.648 ± 0.02; (1.111 µM) 0.455 ± 0.014; (3.333 µM) 0.395 ± 0.016; (10 µM) 0.261 ± 0.009.
In the case of `C=CC(=O)N1CCC[C@@H](n2nc(-c3ccc(Oc4ccccc4)cc3)c3c(N)ncnc32)C1` [Ibrutinib], the relative viability reads like this: (0.00017 µM) 0.985 ± 0.032; (0.00051 µM) 0.967 ± 0.043; (0.00152 µM) 0.993 ± 0.05; (0.00457 µM) 0.97 ± 0.038; (0.01372 µM) 0.976 ± 0.04; (0.04115 µM) 0.988 ± 0.032. The relative viability turned out to be 0.957 ± 0.034 (0.1235 µM); 0.969 ± 0.015 (0.3704 µM); 0.989 ± 0.04 (1.111 µM); 0.957 ± 0.031 (3.333 µM); 0.882 ± 0.013 (10 µM).
In the case of `O=C(Cc1ccc(-c2ccc(OCCN3CCOCC3)cc2)cn1)NCc1ccccc1` [KX2-391], the relative viability reads like this: (0.00017 µM) 0.984 ± 0.025; (0.00051 µM) 1.002 ± 0.0063; (0.00152 µM) 1.01 ± 0.029; (0.00457 µM) 0.996 ± 0.017; (0.01372 µM) 0.973 ± 0.022; (0.04115 µM) 0.674 ± 0.021. Also, the relative viability (0.1235 µM) came to 0.0817 ± 0.0038; the relative viability (0.3704 µM) was determined as 0.0547 ± 0.0048; the relative viability (1.111 µM) amounted to 0.0489 ± 0.0023; the relative viability (3.333 µM) was 0.0417 ± 0.0023; the relative viability (10 µM) turned out to be 0.0395 ± 0.0014.
For the compound `CC(=O)Nc1cccc(-n2c(=O)n(C3CC3)c(=O)c3c(Nc4ccc(I)cc4F)n(C)c(=O)c(C)c32)c1` [Trametinib], the relative viability worked out at 0.979 ± 0.039 (0.00017 µM); 0.973 ± 0.036 (0.00051 µM); 0.969 ± 0.044 (0.00152 µM); 0.957 ± 0.022 (0.00457 µM); 0.973 ± 0.049 (0.01372 µM); 0.959 ± 0.037 (0.04115 µM). In addition, the relative viability is, setting by setting: (0.1235 µM) 0.946 ± 0.019; (0.3704 µM) 0.975 ± 0.031; (1.111 µM) 0.978 ± 0.06; (3.333 µM) 0.957 ± 0.052; (10 µM) 0.941 ± 0.062.
`COc1cc2nccc(Oc3ccc(NC(=O)Nc4cc(C)on4)c(Cl)c3)c2cc1OC` [Tivozanib]: the relative viability runs as follows: (0.00017 µM) 0.987 ± 0.038; (0.00051 µM) 1.01 ± 0.026; (0.00152 µM) 0.9944 ± 0.0095; (0.00457 µM) 1.02 ± 0.038; (0.01372 µM) 1.02 ± 0.022; (0.04115 µM) 1.03 ± 0.02. In addition, the relative viability by setting is: (0.1235 µM) 1 ± 0.024; (0.3704 µM) 1.02 ± 0.018; (1.111 µM) 0.981 ± 0.031; (3.333 µM) 0.912 ± 0.036; (10 µM) 0.768 ± 0.02.
Turning to `COc1cc2c(cc1O)CCN[C@]21CS[C@@H]2c3c(OC(C)=O)c(C)c4c(c3[C@H](COC1=O)N1[C@@H]2[C@H]2c3c(cc(C)c(OC)c3O)C[C@@H]([C@@H]1O)N2C)OCO4` [Trabectedin], the relative viability turned out to be 0.979 ± 0.032 (2 pM); 0.954 ± 0.052 (5 pM); 0.833 ± 0.06 (15 pM); 0.581 ± 0.008 (50 pM); 0.0757 ± 0.0065 (0.00014 µM); 0.0099 ± 0.002 (0.00041 µM). The relative viability reads like this: (0.0012 µM) 0.00377 ± 0.00023; (0.0037 µM) 0.0027 ± 0.00085; (0.011 µM) 0.00663 ± 0.00032; (200 fM) 0.9532 ± 0.0081; (600 fM) 0.985 ± 0.056.
`CNC(=O)c1cc(Oc2ccc(NC(=O)Nc3ccc(Cl)c(C(F)(F)F)c3)c(F)c2)ccn1` [Regorafenib]: the relative viability is, setting by setting: (0.00017 µM) 0.965 ± 0.055; (0.00051 µM) 0.959 ± 0.053; (0.00152 µM) 0.991 ± 0.036; (0.00457 µM) 0.975 ± 0.047; (0.01372 µM) 0.983 ± 0.042; (0.04115 µM) 0.979 ± 0.014. Further, the relative viability was 0.986 ± 0.034 (0.1235 µM); 0.973 ± 0.052 (0.3704 µM); 0.932 ± 0.058 (1.111 µM); 0.87 ± 0.043 (3.333 µM); 0.776 ± 0.033 (10 µM).
Consider `C[C@@H]1CCN(C(=O)CC#N)C[C@@H]1N(C)c1ncnc2[nH]ccc12` [Tofacitinib], for which the relative viability was determined as 0.942 ± 0.038 (0.00017 µM); 0.962 ± 0.035 (0.00051 µM); 0.952 ± 0.053 (0.00152 µM); 0.966 ± 0.045 (0.00457 µM); 0.961 ± 0.024 (0.01372 µM); 0.962 ± 0.06 (0.04115 µM). Besides, the relative viability is, setting by setting: (0.1235 µM) 0.949 ± 0.047; (0.3704 µM) 0.965 ± 0.034; (1.111 µM) 0.955 ± 0.045; (3.333 µM) 0.988 ± 0.051; (10 µM) 1.02 ± 0.044.
Turning to `COc1cc2c(Oc3ccc4[nH]c(C)cc4c3F)ncnc2cc1OCCCN1CCCC1` [Cediranib], the relative viability was determined as 0.96 ± 0.026 (0.00017 µM); 0.985 ± 0.038 (0.00051 µM); 0.95 ± 0.023 (0.00152 µM); 0.958 ± 0.018 (0.00457 µM); 0.992 ± 0.023 (0.01372 µM); 0.961 ± 0.017 (0.04115 µM). Besides, the relative viability by setting is: (0.1235 µM) 0.962 ± 0.01; (0.3704 µM) 0.9773 ± 0.0095; (1.111 µM) 0.887 ± 0.013; (3.333 µM) 0.971 ± 0.025; (10 µM) 0.943 ± 0.022.
